pKd: −log10 of the molar value. Where only a bound is given, the exact number is not on record here.

The values below come from US9725465B2, “Biaryl acetamide compounds and methods of use thereof” (Ambit Biosciences Corporation, priority 2013, dated 2017).

In one experiment the target is FLT3 kinase (Homo sapiens (Human), UniProt P36888). As to the kind of experiment: Competition binding assay (Kd), FLT3. To be noted: competition binding.
In another experiment the target is KIT kinase (Homo sapiens (Human), UniProt P10721). Nature of the experiment: Competition binding assay (Kd), KIT. Particulars: competition binding. The procedure, abridged: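 Kinase, as T7 phage fusion or HEK-293-expressed DNA-tagged protein, competed off immobilised ligand beads by test compound (eleven-point threefold dilutions, from 100× DMSO stocks). Eluted kinase quantified by qPCR to derive Kd; DMSO used as control.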
Sequence of KIT kinase (P10721 26-976): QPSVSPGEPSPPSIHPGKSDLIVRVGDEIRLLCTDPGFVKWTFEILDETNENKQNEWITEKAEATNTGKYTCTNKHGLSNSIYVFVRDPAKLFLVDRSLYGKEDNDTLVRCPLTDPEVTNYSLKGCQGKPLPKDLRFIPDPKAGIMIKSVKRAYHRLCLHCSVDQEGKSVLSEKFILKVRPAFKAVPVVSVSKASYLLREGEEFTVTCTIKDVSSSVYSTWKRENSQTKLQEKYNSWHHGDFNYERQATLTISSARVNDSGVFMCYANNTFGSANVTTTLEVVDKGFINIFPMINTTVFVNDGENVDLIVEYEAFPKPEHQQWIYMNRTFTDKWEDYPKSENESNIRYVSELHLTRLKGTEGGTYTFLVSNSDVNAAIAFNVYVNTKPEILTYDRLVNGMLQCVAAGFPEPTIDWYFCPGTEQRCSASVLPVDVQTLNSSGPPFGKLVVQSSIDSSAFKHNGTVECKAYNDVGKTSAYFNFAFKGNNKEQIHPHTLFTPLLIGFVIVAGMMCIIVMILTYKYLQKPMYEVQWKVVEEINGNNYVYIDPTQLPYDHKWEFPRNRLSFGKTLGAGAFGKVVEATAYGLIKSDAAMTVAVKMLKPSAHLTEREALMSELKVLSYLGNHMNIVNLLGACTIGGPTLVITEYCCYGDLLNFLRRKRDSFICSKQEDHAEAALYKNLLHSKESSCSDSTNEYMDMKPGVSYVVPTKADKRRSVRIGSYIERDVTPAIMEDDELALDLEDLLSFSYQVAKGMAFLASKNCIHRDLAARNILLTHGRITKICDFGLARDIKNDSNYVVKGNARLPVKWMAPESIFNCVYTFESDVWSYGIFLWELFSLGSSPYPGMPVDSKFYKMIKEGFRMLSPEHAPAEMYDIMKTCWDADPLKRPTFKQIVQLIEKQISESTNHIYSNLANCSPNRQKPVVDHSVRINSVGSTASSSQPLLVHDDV

Sequence of FLT3 kinase (P36888 27-993): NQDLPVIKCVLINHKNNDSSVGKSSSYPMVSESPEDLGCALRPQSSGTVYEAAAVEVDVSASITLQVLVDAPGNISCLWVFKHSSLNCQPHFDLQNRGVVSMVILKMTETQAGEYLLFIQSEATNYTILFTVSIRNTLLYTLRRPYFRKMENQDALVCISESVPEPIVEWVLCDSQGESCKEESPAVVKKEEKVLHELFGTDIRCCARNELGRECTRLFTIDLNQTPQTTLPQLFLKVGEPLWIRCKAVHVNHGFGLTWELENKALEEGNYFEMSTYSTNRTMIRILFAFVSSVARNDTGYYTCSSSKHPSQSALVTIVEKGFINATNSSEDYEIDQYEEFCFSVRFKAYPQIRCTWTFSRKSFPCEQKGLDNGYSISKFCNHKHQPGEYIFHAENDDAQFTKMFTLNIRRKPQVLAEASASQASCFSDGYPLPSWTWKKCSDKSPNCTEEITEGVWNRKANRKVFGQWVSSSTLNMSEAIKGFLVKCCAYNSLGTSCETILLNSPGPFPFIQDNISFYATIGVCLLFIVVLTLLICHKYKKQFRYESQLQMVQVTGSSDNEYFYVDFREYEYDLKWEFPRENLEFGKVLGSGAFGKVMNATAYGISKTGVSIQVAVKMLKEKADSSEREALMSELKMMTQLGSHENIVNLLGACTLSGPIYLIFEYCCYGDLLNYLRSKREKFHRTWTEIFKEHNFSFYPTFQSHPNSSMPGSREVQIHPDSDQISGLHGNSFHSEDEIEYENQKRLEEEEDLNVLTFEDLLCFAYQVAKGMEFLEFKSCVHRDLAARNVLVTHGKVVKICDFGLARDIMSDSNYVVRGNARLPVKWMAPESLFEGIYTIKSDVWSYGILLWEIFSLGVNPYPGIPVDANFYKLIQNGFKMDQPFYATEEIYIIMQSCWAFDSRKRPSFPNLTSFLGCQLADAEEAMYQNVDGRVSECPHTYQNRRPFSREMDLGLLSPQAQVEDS
Description for FLT3 kinase: The liganded beads were blocked with excess biotin and washed with blocking buffer (SeaBlock (Pierce), 1% BSA, 0.05% Tween 20, 1 mM DTT) to remove unbound ligand and to reduce non-specific binding. […] Test compounds were prepared as 100× stocks in DMSO and diluted into the aqueous environment. Kds were determined using an eleven point threefold serial dilutions. DMSO or control compounds were was added to control assays lacking a test compound. […] The kinase concentration in the eluates was measured by quantitative PCR.
A selectivity score (S35) is a quantitative measure of selectivity of a compound against a panel of kinases. […] Percent of control (POC) is calculated by subtracting the signal of the control compound (POC=0) from the signal of the test compound and dividing the outcome by the signal of DMSO (POC=100) minus the signal of the control compound.

What is called pKd is the Kd on a negative log10 scale, so that one unit is a factor of ten. Read a high pKd as a small Kd. Turning to `COc1cc2ncc(-c3ccc(CC(=O)Nc4cc(C(C)(C)C(F)(F)F)on4)c(F)c3)cc2cc1OCCN1CCC(O)CC1` [Example 206, 2-[2-fluoro-4-[6-[2-(4-hydroxy-1-piperidyl)ethoxy]-7-methoxy-3-quinolyl]phenyl]-N-[5-(2,2,2-trifluoro-1,1-dimethyl-ethyl)isoxazol-3-yl]acetamide], the pKd at FLT3 kinase and on KIT kinase was > 8.30 each time.

Take `COc1cc2ncc(-c3ccc(CC(=O)Nc4cc(C(C)(C)C(F)(F)F)on4)c(F)c3)cc2cc1OCCN1CCC(F)(F)CC1` [Example 207, 2-[4-[6-[2-(4,4-difluoro-1-piperidyl)ethoxy]-7-methoxy-3-quinolyl]-2-fluoro-phenyl]-N-[5-(2,2,2-trifluoro-1,1-dimethyl-ethyl)isoxazol-3-yl]acetamide]: the pKd is > 8.30 at FLT3 kinase and 7.30 to 7.70 at KIT kinase.

Consider `COc1cc2nc(-c3ccc(CC(=O)Nc4cc(C5(C(F)(F)F)CC5)on4)c(F)c3)cnc2cc1OC[C@@H](C)O` [Example 208, 2-[2-fluoro-4-[6-[(2R)-2-hydroxypropoxy]-7-methoxy-quinoxalin-2-yl]phenyl]-N-[5-[1-(trifluoro-methyl)cyclopropyl]isoxazol-3-yl]acetamide], for which the pKd at FLT3 kinase and on KIT kinase was > 8.30 each time.

In the case of `COc1cc2nc(-c3ccc(CC(=O)Nc4cc(C(C)(C)C(F)(F)F)on4)c(F)c3)cnc2cc1OCCCN1CCOCC1` [Example 209, 2-[2-fluoro-4-[7-methoxy-6-(3-morpholino-propoxy)quinoxalin-2-yl]phenyl]-N-[5-(2,2,2-trifluoro-1,1-dimethyl-ethyl)isoxazol-3-yl]acetamide], the pKd on FLT3 kinase and at KIT kinase was > 8.30 throughout.

`COc1cc2nc(-c3ccc(CC(=O)Nc4cc(C(C)(C)C(F)(F)F)on4)c(F)c3)cnc2cc1OCCn1cncn1` [Example 210, 2-[2-fluoro-4-[7-methoxy-6-[2-(1,2,4-triazol-1-yl)ethoxy]quinoxalin-2-yl]phenyl]-N-[5-(2,2,2-trifluoro-1,1-dimethyl-ethyl)isoxazol-3-yl]acetamide]: the pKd at FLT3 kinase and on KIT kinase was > 8.30 in each case.

As for `COc1cc2nc(-c3ccc(CC(=O)Nc4cc(C(C)(C)C(F)(F)F)on4)c(F)c3)cnc2cc1OCCn1cnnc1` [Example 211, 2-[2-fluoro-4-[7-methoxy-6-[2-(1,2,4-triazol-4-yl)ethoxy]quinoxalin-2-yl]phenyl]-N-[5-(2,2,2-trifluoro-1,1-dimethyl-ethyl)isoxazol-3-yl]acetamide], the pKd at FLT3 kinase and on KIT kinase was > 8.30 throughout.

For `COc1cc2nc(-c3ccc(CC(=O)Nc4cc(C5(C(F)(F)F)CC5)on4)c(F)c3)cnc2cc1OCCCN1CCOCC1` [Example 212, 2-[2-fluoro-4-[7-methoxy-6-(3-morpholino-propoxy)quinoxalin-2-yl]phenyl]-N-[5-[1-(trifluoro-methyl)cyclopropyl]isoxazol-3-yl]acetamide], the pKd on FLT3 kinase and on KIT kinase was > 8.30 throughout.

In the case of `COc1cc2ncc(-c3ccc(CC(=O)Nc4cc(C5(C(F)(F)F)CC5)on4)c(F)c3)nc2cc1OCCCN1CCOCC1` [Example 213, 2-[2-fluoro-4-[6-methoxy-7-(3-morpholino-propoxy)quinoxalin-2-yl]phenyl]-N-[5-[1-(trifluoro-methyl)cyclopropyl]isoxazol-3-yl]acetamide], the pKd at FLT3 kinase and on KIT kinase was > 8.30 each time.

With `COc1cc2ncc(-c3ccc(CC(=O)Nc4cc(C5(C(F)(F)F)CC5)on4)c(F)c3)nc2cc1OCCCNC(C)=O` [Example 214, 2-[4-[7-(3-acetamidopropoxy)-6-methoxy-quinoxalin-2-yl]-2-fluoro-phenyl]-N-[5-[1-(trifluoromethyl)cyclo-propyl]isoxazol-3-yl]acetamide], the pKd on FLT3 kinase and at KIT kinase was > 8.30 each time.

For `COc1cc2nc(-c3ccc(CC(=O)Nc4cc(C(C)(C)C)on4)cc3)cnc2cc1OCCN1CCOCC1` [Example 215, N-(5-tert-butylisoxazol-3-yl)-2-[4-[7-methoxy-6-(2-morpholino-ethoxy)quinoxalin-2-yl]phenyl]acetamide], the pKd at FLT3 kinase and at KIT kinase was > 8.30 throughout.

Regarding `COc1cc2nc(-c3ccc(CC(=O)Nc4cc(C5(C(F)(F)F)CC5)on4)c(F)c3)cnc2cc1OCCN1CCS(=O)(=O)CC1` [Example 216, 2-[4-[6-[2-(1,1-dioxo-1,4-thiazinan-4-yl)ethoxy]-7-methoxy-quinoxalin-2-yl]-2-fluoro-phenyl]-N-[5-[1-(trifluoromethyl)cyclo-propyl]isoxazol-3-yl]acetamide], the negative-log Kd (pKd) on FLT3 kinase and on KIT kinase was > 8.30 throughout.

In the case of `COc1cc2ncc(-c3ccc(CC(=O)Nc4cc(C(C)(C)C(F)(F)F)on4)cc3F)nc2cc1OC` [Example 217, 2-[4-(6,7-dimethoxyquinoxalin-2-yl)-3-fluoro-phenyl]-N-[5-(2,2,2-trifluoro-1,1-dimethyl-ethyl)isoxazol-3-yl]acetamide], the pKd at FLT3 kinase and at KIT kinase was > 8.30 throughout.

As for `COc1cc2ncc(-c3cc(F)c(CC(=O)Nc4cc(C5(C(F)(F)F)CC5)on4)cc3F)nc2cc1OC` [Example 218, 2-[4-(6,7-dimethoxyquinoxalin-2-yl)-2,5-difluoro-phenyl]-N-[5-[1-(trifluoro-methyl)cyclopropyl]isoxazol-3-yl]acetamide], the pKd at FLT3 kinase and at KIT kinase was > 8.30 in each case.

Regarding `COc1cc2ncc(-c3cc(F)c(CC(=O)Nc4cc(C(C)(C)C(F)(F)F)on4)cc3F)nc2cc1OC` [Example 219, 2-[4-(6,7-dimethoxyquinoxalin-2-yl)-2,5-difluoro-phenyl]-N-[5-(2,2,2-trifluoro-1,1-dimethyl-ethyl)isoxazol-3-yl]acetamide], the pKd at FLT3 kinase and at KIT kinase was > 8.30 throughout.

On to `CC(=O)NCCOc1cc2ncc(-c3ccc(CC(=O)Nc4cc(C(C)(C)C(F)(F)F)on4)c(F)c3)nc2cc1OCCNC(C)=O` [Example 220, 2-[4-[6,7-bis(2-acetamidoethoxy)quinoxalin-2-yl]-2-fluoro-phenyl]-N-[5-(2,2,2-trifluoro-1,1-dimethyl-ethyl)isoxazol-3-yl]acetamide], for which the pKd at FLT3 kinase and on KIT kinase was > 8.30 in each case.

Turning to `CC(=O)N(C)CCOc1cc2ncc(-c3ccc(CC(=O)Nc4cc(C(C)(C)C(F)(F)F)on4)c(F)c3)nc2cc1OCCN(C)C(C)=O` [Example 221, 2-[4-[6,7-bis[2-[acetyl(methyl)amino]ethoxy]quinoxalin-2-yl]-2-fluoro-phenyl]-N-[5-(2,2,2-trifluoro-1,1-dimethyl-ethyl)isoxazol-3-yl]acetamide], the pKd on FLT3 kinase and on KIT kinase was > 8.30 throughout.

Consider `COc1cc2nc(-c3ccc(CC(=O)Nc4cc(C5(C(F)(F)F)CC5)on4)c(F)c3)cnc2cc1OCCCS(C)(=O)=O` [Example 222, 2-[2-fluoro-4-[7-methoxy-6-(3-methylsulfonyl-propoxy)quinoxalin-2-yl]phenyl]-N-[5-[1-(trifluoromethyl)cyclo-propyl]isoxazol-3-yl]acetamide], for which the pKd on FLT3 kinase and at KIT kinase was > 8.30 in each case.

For the compound `COc1cc2nc(-c3ccc(CC(=O)Nc4cc(C5(C(F)(F)F)CC5)on4)c(F)c3)cnc2cc1OCCN1CC2CC(C1)O2` [Example 223, 2-[2-fluoro-4-[7-methoxy-6-[2-(6-oxa-3-azabicyclo[3.1.1]heptan-3-yl)ethoxy]quinoxalin-2-yl]phenyl]-N-[5-[1-(trifluoromethyl)cyclo-propyl]isoxazol-3-yl]acetamide], the negative-log Kd (pKd) on FLT3 kinase and on KIT kinase was > 8.30 each time.

As to `COc1cc2nc(-c3ccc(CC(=O)Nc4cc(C5(C(F)(F)F)CC5)on4)c(F)c3)cnc2cc1OCCN1CC2CC1CO2` (stereo not drawn) [Example 224, 2-[2-fluoro-4-[7-methoxy-6-[2-(2-oxa-5-azabicyclo[2.2.1]heptan-5-yl)ethoxy]quinoxalin-2-yl]phenyl]-N-[5-[1-(trifluoromethyl)cyclo-propyl]isoxazol-3-yl]acetamide], the pKd at FLT3 kinase and on KIT kinase was > 8.30 throughout.

`COc1cc2ncc(-c3cc(F)c(CC(=O)Nc4cc(C(C)(C)C(F)(F)F)on4)c(F)c3)nc2cc1OC` [Example 225, 2-[4-(6,7-dimethoxyquinoxalin-2-yl)-2,6-difluoro-phenyl]-N-[5-(2,2,2-trifluoro-1,1-dimethyl-ethyl)isoxazol-3-yl]acetamide]: the negative logarithm of the Kd (pKd) at FLT3 kinase and at KIT kinase was > 8.30 in each case.

For `COc1cc2ncc(-c3cc(F)c(CC(=O)Nc4cc(C5(C(F)(F)F)CC5)on4)c(F)c3)nc2cc1OC` [Example 226, 2-[4-(6,7-dimethoxyquinoxalin-2-yl)-2,6-difluoro-phenyl]-N-[5-[1-(trifluoromethyl)cyclo-propyl]isoxazol-3-yl]acetamide], the pKd at FLT3 kinase and at KIT kinase was > 8.30 throughout.

As for `COc1cc2ncc(-c3ccc(CC(=O)Nc4cc(C5(C(F)(F)F)CC5)on4)c(F)c3)nc2cc1OCCCN` [Example 227, 2-[4-[7-(3-aminopropoxy)-6-methoxy-quinoxalin-2-yl]-2-fluoro-phenyl]-N-[5-[1-(trifluoromethyl)cyclo-propyl]isoxazol-3-yl]acetamide], the pKd at FLT3 kinase and on KIT kinase was > 8.30 in each case.

As for `COc1cc2nc(-c3ccc(CC(=O)Nc4cc(C5(C(F)(F)F)CC5)nn4C)c(F)c3)cnc2cc1OCCN1CCOCC1` [Example 228, 2-[2-fluoro-4-[7-methoxy-6-(2-morpholino-ethoxy)quinoxalin-2-yl]phenyl]-N-[2-methyl-5-[1-(trifluoromethyl)cyclo-propyl]pyrazol-3-yl]acetamide], the pKd at FLT3 kinase and on KIT kinase was > 8.30 each time.

As for `COc1cc2ncc(-c3cnc(CC(=O)Nc4cc(C(C)(C)C(F)(F)F)on4)c(F)c3)nc2cc1OC` [Example 229, 2-[5-(6,7-dimethoxyquinoxalin-2-yl)-3-fluoro-2-pyridyl]-N-[5-(2,2,2-trifluoro-1,1-dimethyl-ethyl)isoxazol-3-yl]acetamide], the pKd on FLT3 kinase and on KIT kinase was > 8.30 in each case.
